Here are results for 2 compounds from patent US20240423999A1 (priority 2021, published 2024).

Data set [1] deals with mice. As to conditions: mouse, in vivo, po.
For data set [2] the following is noted: in vivo; cited from earlier work.

Regarding `[C-]#[O+]` [CO, carbon monoxide], in data set [1], the behavioral recovery result was “behavior recovered from being incapable of action” and the survival rate entry was “high”. `O=S([O-])S(=O)[O-].[Na+].[Na+]` [sodium dithionite]: the “value indicated for oral toxicity” value in data set [2] was 2500 mg/kg body weight.
